From patent publication US8410302B2, “Methoxyimino compounds and fungicide composition comprising same” (Kyung Nong Corporation, priority 2007, dated 2013)
Where two headings read alike, the source gives them in different places.

Experiments:
[1] = test system: Pyricularia oryzae Carvara KA301; assay: whole plant or invertebrate; format: in vivo; settings: for RCB control value (C.V.): rice blast; for pest or weed control at 2 ppm / pest or weed control at 10 ppm / pest or weed control at 50 ppm / pest or weed control at 100 ppm: Pyricularia oryzae, read-out: RCB control value (C.V.)
Botrytis cinerae = assay: Fungicidal activity against cucumber gray mold rot (CGM) disease, control value; format: in vivo
Phytophthora infestans = assay: whole plant or invertebrate; format: in vivo; settings: for TLB control value (C.V.): tomato late blight; for pest or weed control at 2 ppm / pest or weed control at 10 ppm / pest or weed control at 50 ppm / pest or weed control at 100 ppm: Phytophthora infestans, in Solanum lycopersicum, read-out: TLB control value (C.V.)
Puccinia recondita = assay: Fungicidal activity against wheat leaf rust (WLR) disease, control value; format: in vivo; settings: for pest or weed control at 2 ppm / pest or weed control at 10 ppm / pest or weed control at 50 ppm / pest or weed control at 100 ppm: read-out: WLR control value (C.V.)
Erysiphae graminis = assay: Fungicidal activity against barley powdery mildew (BPM) disease, control value; format: in vivo; settings: for pest or weed control at 2 ppm / pest or weed control at 10 ppm / pest or weed control at 50 ppm / pest or weed control at 100 ppm: 168 h, read-out: BPM control value (C.V.)
Rhizoctonia solani AG-1 = assay: Fungicidal activity against rice sheath blight (RSB) disease, control value; settings: for pest or weed control at 2 ppm / pest or weed control at 10 ppm / pest or weed control at 50 ppm / pest or weed control at 100 ppm: Rhizoctonia solani, AG1, in Oryza sativa, read-out: RSB control value (C.V.)
[2] = Botrytis, 100 ppm, cucumber gray mold rot, read-out: CGM control value (C.V.)
[3] = Hordeum vulgare, barley powdery mildew
[4] = Hordeum vulgare, 100 ppm, barley powdery mildew

In the case of `CNC(=O)/C(=N/OC)c1ccccc1CON=C(C)c1cccc(C=C(F)Cl)c1` [Example 32, (E)-2-[[[[[2-[3-(2-chloro-2-fluorovinyl)phenyl](1-methyl)methylidene]amino]oxy]methyl]phenyl]-2-methoxyimino-N-methylacetamide], the “RCB control value (C.V.)” value ([1]; 50 ppm) is reported as 90%, the “RCB control value (C.V.)” value ([1]; 100 ppm) is reported as 97% and the “CGM control value (C.V.)” value (Botrytis cinerae; 100 ppm, cucumber gray mold rot) is reported as 34%. For the same compound, the “TLB control value (C.V.)” value (Phytophthora infestans; 50 ppm) was 55%, the “TLB control value (C.V.)” value (Phytophthora infestans; 100 ppm) was 93% and the “WLR control value (C.V.)” value (Puccinia recondita; 100 ppm, wheat leaf rust) was 82%. For the same compound, the “BPM control value (C.V.)” value (Erysiphae graminis; 100 ppm, barley powdery mildew) was 80% and the “RSB control value (C.V.)” value (Rhizoctonia solani AG-1; 100 ppm, rice sheath blight) was 65%.

`CO/N=C(/C(=O)OC)c1ccccc1COc1ccc(F)cc1C=C(Cl)Cl` [Example 55, methyl-(E)-2-(2-((2-(2,2-dichlorovinyl)-4-fluorophenoxy)methyl)phenyl)-2-methoxyiminoacetate] showed a pest or weed control at 2 ppm [1] of 100%, a pest or weed control at 10 ppm [1] of 100% and a pest or weed control at 50 ppm [1] of 100%. For the same compound, the pest or weed control at 100 ppm [1] was 100%, the pest or weed control at 50 ppm (Botrytis cinerae; Botrytis, 50 ppm, read-out: CGM control value (C.V.)) was 25% and the pest or weed control at 100 ppm (Botrytis cinerae; Botrytis, 100 ppm, read-out: CGM control value (C.V.)) was 75%. The pest or weed control at 2 ppm (Phytophthora infestans) was 99%, the pest or weed control at 10 ppm (Phytophthora infestans) was 100% and the pest or weed control at 50 ppm (Phytophthora infestans) was 100%. For the same compound, the pest or weed control at 100 ppm (Phytophthora infestans) was 100%, the pest or weed control at 2 ppm (Puccinia recondita; Puccinia recondita) was 100% and the pest or weed control at 10 ppm (Puccinia recondita; Puccinia recondita) was 100%. It also gave a pest or weed control at 50 ppm (Puccinia recondita; Puccinia recondita) of 100%, a pest or weed control at 100 ppm (Puccinia recondita; Puccinia recondita, 100 ppm) of 100% and a pest or weed control at 2 ppm (Erysiphae graminis) of 100%. For the same compound, the pest or weed control at 10 ppm (Erysiphae graminis) was 100%, the pest or weed control at 50 ppm (Erysiphae graminis) was 100% and the pest or weed control at 100 ppm (Erysiphae graminis; 100 ppm) was 100%. The pest or weed control at 2 ppm (Rhizoctonia solani AG-1) was 90%, the pest or weed control at 10 ppm (Rhizoctonia solani AG-1) was 100% and the pest or weed control at 50 ppm (Rhizoctonia solani AG-1) was 100%. The pest or weed control at 100 ppm (Rhizoctonia solani AG-1) was 100%.

With `CO/N=C(/C(=O)OC)c1ccccc1COc1cc(C=C(Cl)Cl)ccc1OC` [Example 47, methyl-(E)-2-(2-((5-(2,2-dichlorovinyl)-2-methoxyphenoxy)methyl)phenyl)-2-methoxyiminoacetate] the pest or weed control at 2 ppm [1] was 80%, the pest or weed control at 10 ppm [1] was 99% and the pest or weed control at 50 ppm [1] was 100%. The pest or weed control at 100 ppm [1] was 100%, the pest or weed control at 100 ppm (Botrytis cinerae; [2]) was 55% and the pest or weed control at 2 ppm (Phytophthora infestans) was 85%. For the same compound, the pest or weed control at 10 ppm (Phytophthora infestans) was 95%, the pest or weed control at 50 ppm (Phytophthora infestans) was 100% and the pest or weed control at 100 ppm (Phytophthora infestans) was 100%. For the same compound, the pest or weed control at 2 ppm (Puccinia recondita; wheat leaf rust) was 100%, the pest or weed control at 10 ppm (Puccinia recondita; wheat leaf rust) was 100% and the pest or weed control at 50 ppm (Puccinia recondita; wheat leaf rust) was 100%. It also gave a pest or weed control at 100 ppm (Puccinia recondita; 100 ppm, wheat leaf rust) of 100%, a pest or weed control at 2 ppm (Erysiphae graminis; [3]) of 100% and a pest or weed control at 10 ppm (Erysiphae graminis; [3]) of 100%. The pest or weed control at 50 ppm (Erysiphae graminis; [3]) was 100%, the pest or weed control at 100 ppm (Erysiphae graminis; [4]) was 100% and the pest or weed control at 2 ppm (Rhizoctonia solani AG-1) was 95%. It also gave a pest or weed control at 10 ppm (Rhizoctonia solani AG-1) of 100%, a pest or weed control at 50 ppm (Rhizoctonia solani AG-1) of 100% and a pest or weed control at 100 ppm (Rhizoctonia solani AG-1) of 100%.

Compound `CNC(=O)/C(=N/OC)c1ccccc1COc1ccc(C=C(Cl)Br)cc1` [Example 18, (2E)-2-(2-((4-(2-bromo-2-chlorovinyl)phenoxy)methyl)phenyl)-2-methoxyimino-N-methylacetamide] has a pest or weed control at 2 ppm [1] of 100%, a pest or weed control at 10 ppm [1] of 100% and a pest or weed control at 50 ppm [1] of 100%. The pest or weed control at 100 ppm [1] was 100%, the pest or weed control at 100 ppm (Botrytis cinerae; [2]) was 45% and the pest or weed control at 2 ppm (Phytophthora infestans) was 30%. The pest or weed control at 10 ppm (Phytophthora infestans) was 80%, the pest or weed control at 50 ppm (Phytophthora infestans) was 100% and the pest or weed control at 100 ppm (Phytophthora infestans) was 100%. For the same compound, the pest or weed control at 2 ppm (Puccinia recondita; wheat leaf rust) was 100%, the pest or weed control at 10 ppm (Puccinia recondita; wheat leaf rust) was 100% and the pest or weed control at 50 ppm (Puccinia recondita; wheat leaf rust) was 100%. It also gave a pest or weed control at 100 ppm (Puccinia recondita; 100 ppm, wheat leaf rust) of 100%, a pest or weed control at 2 ppm (Erysiphae graminis; [3]) of 95% and a pest or weed control at 10 ppm (Erysiphae graminis; [3]) of 98%. The pest or weed control at 50 ppm (Erysiphae graminis; [3]) was 100%, the pest or weed control at 100 ppm (Erysiphae graminis; [4]) was 100% and the pest or weed control at 2 ppm (Rhizoctonia solani AG-1) was 90%. It also gave a pest or weed control at 10 ppm (Rhizoctonia solani AG-1) of 98%, a pest or weed control at 50 ppm (Rhizoctonia solani AG-1) of 100% and a pest or weed control at 100 ppm (Rhizoctonia solani AG-1) of 100%.
